Source: US20150291625A1 (PFIZER INC., priority 2012, published 2015)
Where “and” joins values, the source holds several entries; their conditions need not be identical. Identical values can stand only once. Counter-ions that a name gives are not always drawn.

Columns and labels:
[1] = target: T1, D1 (Homo sapiens, UniProt P21728); test: D1 cAMP HTRF assay (HEK293T/hD1#1 stable cell line); assay type: cell-based; set-up: expressed in transfected cells
Procedure, shortened: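 Agonist-mode HTRF cAMP assay in HEK293T/hD1#1 stable cells resuspended in PBS with 0.5 μM IBMX; compound exposure 30 min at room temperature, then cAMP-D2 and anti-cAMP-cryptate detection for 1 h. EC50 from raw ratio data or from cAMP levels interpolated on a standard curve; percent effect versus controls.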

[2] = target: T1, D1; test: Human D1 receptor binding assay ([3H]-SCH23390 competition); details: Human D1 Receptor Binding, Ki (nM), Geometric mean of 2-4 determinations, a: >=5 determinations, d: single determination

T1 sequence (P21728 whole entry): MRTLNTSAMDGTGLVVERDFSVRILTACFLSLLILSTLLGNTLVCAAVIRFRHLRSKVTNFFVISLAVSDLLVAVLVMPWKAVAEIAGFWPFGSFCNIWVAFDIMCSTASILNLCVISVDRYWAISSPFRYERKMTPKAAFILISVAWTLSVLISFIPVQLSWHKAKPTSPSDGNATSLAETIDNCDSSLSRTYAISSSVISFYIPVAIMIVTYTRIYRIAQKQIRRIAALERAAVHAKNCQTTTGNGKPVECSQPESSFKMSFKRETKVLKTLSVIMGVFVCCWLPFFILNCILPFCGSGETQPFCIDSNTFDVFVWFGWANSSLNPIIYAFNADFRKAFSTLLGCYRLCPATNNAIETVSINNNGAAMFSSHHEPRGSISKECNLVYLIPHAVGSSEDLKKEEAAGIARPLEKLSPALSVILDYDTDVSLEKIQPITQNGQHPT

SMILES	EC50 [1]	Ki [2]
Cc1cc(Oc2nccc3occc23)ccc1-c1cccnc1C1CC1 [Example 88, 4-[4-(2-cyclopropylpyridin-3-yl)-3-methylphenoxy]furo[3,2-c]pyridine]	0.71 µM and 1.52 µM	117 nM
Cc1cc(Oc2nccc3occc23)ccc1-c1c(C)cccc1C [Example 89, 4-[(2,2′,6′-trimethylbiphenyl-4-yl)oxy]furo[3,2-c]pyridine, trifluoroacetate salt]	1.86 µM	123 nM
Cc1nc(N)ccc1-c1ccc(Oc2nccc3occc23)cc1Cl [Example 90, 5-[2-chloro-4-(furo[3,2-c]pyridin-4-yloxy)phenyl]-6-methylpyridin-2-amine]	0.448 µM	25.4 nM
Cc1ncc(N)nc1-c1ccc(Oc2nccc3occc23)cc1C(F)(F)F [Example 91, 6-[4-(furo[3,2-c]pyridin-4-yloxy)-2-(trifluoromethyl)phenyl]-5-methylpyrazin-2-amine]	0.58 µM	61.2 nM
Cc1ncccc1-c1ccc(Oc2nccc3occc23)cc1F [Example 92, 4-[3-fluoro-4-(2-methylpyridin-3-yl)phenoxy]furo[3,2-c]pyridine]	0.746 µM	25.2 nM
Cc1ncc(N)nc1-c1ccc(Oc2nccc3occc23)cc1F [Example 93, 6-[2-fluoro-4-(furo[3,2-c]pyridin-4-yloxy)phenyl]-5-methylpyrazin-2-amine]	0.761 µM	88 nM
COc1cc(Oc2nccc3occc23)ccc1-c1c(OC)ccc2cnccc12 [Example 94, 5-[4-(furo[3,2-c]pyridin-4-yloxy)-2-methoxyphenyl]-6-methoxyisoquinoline, formate salt]	0.837 µM	7.08 nM
Cc1cc(Oc2nccc3occc23)ccc1-c1c(C)ncnc1N1CCC1 [Example 95, 4-{4-[4-(azetidin-1-yl)-6-methylpyrimidin-5-yl]-3-methylphenoxy}furo[3,2-c]pyridine, formate salt]	0.444 µM	27.3 nM
Cc1cc(Oc2nccc3occc23)ccc1-c1c(C)ncnc1N1Cc2cn[nH]c2C1 [Example 96, 4-{4-[4-(4,6-dihydropyrrolo[3,4-c]pyrazol-5(1H)-yl)-6-methylpyrimidin-5-yl]-3-methylphenoxy}furo[3,2-c]pyridine, trifluoroacetate salt]	0.306 µM	24.5 nM
Cc1cc(Oc2nccc3occc23)ccc1-c1c(C)ncnc1N1CC(F)C1 [Example 97, 4-{4-[4-(3-fluoroazetidin-1-yl)-6-methylpyrimidin-5-yl]-3-methylphenoxy}furo[3,2-c]pyridine, formate salt]	0.205 µM	7.52 nM
Cc1cc(Oc2nccc3occc23)ccc1-c1c(C)ncnc1N1CCC(F)C1 (centres unmarked) [Example 98, 4-{4-[4-(3-fluoropyrrolidin-1-yl)-6-methylpyrimidin-5-yl]-3-methylphenoxy}furo[3,2-c]pyridine, trifluoroacetate salt]	0.956 µM	28.6 nM
Cc1ncnc(C)c1-c1ccc(Oc2nccc3occc23)c(C)c1C [Example 99, 4-[4-(4,6-dimethylpyrimidin-5-yl)-2,3-dimethylphenoxy]furo[3,2-c]pyridine]	3.04 µM and > 9.95 µM	1370 nM
Cc1ncc2nccn2c1-c1ccc(Oc2nccc3occc23)cc1C(F)(F)F [Example 100, 5-[4-(furo[3,2-c]pyridin-4-yloxy)-2-(trifluoromethyl)phenyl]-6-methylimidazo[1,2-a]pyrazine]	0.112 µM and 0.58 µM	11 nM
Cc1cc(-c2c(C)ncc3nccn23)c(C)cc1Oc1nccc2occc12 [Example 101, 5-[4-(furo[3,2-c]pyridin-4-yloxy)-2,5-dimethylphenyl]-6-methylimidazo[1,2-a]pyrazine]	3.45 µM	431 nM
Cc1cc(Oc2nccc3occc23)ccc1-c1c(C)ncn1C [Example 102, 4-[4-(1,4-dimethyl-1H-imidazol-5-yl)-3-methylphenoxy]furo[3,2-c]pyridine]	0.714 µM	84.6 nM
Cc1cc(Oc2nccc3occc23)cc(C)c1-c1c(C)ncnc1C [Example 103, 4-[4-(4,6-dimethylpyrimidin-5-yl)-3,5-dimethylphenoxy]furo[3,2-c]pyridine]	0.392 µM and 0.87 µM	23.9 nM
Cc1cc(Oc2nccc3occc23)ccc1-c1c(C)cncc1C [Example 104, 4-[4-(3,5-dimethylpyridin-4-yl)-3-methylphenoxy]furo[3,2-c]pyridine]	0.502 µM	24.1 nM
COc1nc(C)c(-c2ccc(Oc3nccc4occc34)cc2C)n2ccnc12 [Example 107, 5-[4-(furo[3,2-c]pyridin-4-yloxy)-2-methylphenyl]-8-methoxy-6-methylimidazo[1,2-a]pyrazine]	0.669 µM	26.2 nM
Cc1ncnc(C)c1-c1ccc(Oc2nccc3occc23)cc1OCc1nc(C2CC2)no1 [Example 108, 4-{3-[(3-cyclopropyl-1,2,4-oxadiazol-5-yl)methoxy]-4-(4,6-dimethylpyrimidin-5-yl)phenoxy}furo[3,2-c]pyridine]	0.673 µM	55.5 nM

SMILES	EC50 [1]	Ki [2]
Cc1cc(Oc2nccc3occc23)ccc1-c1c(C)nc(C)c2nccn12 [Example 109, 5-[4-(furo[3,2-c]pyridin-4-yloxy)-2-methylphenyl]-6,8-dimethylimidazo[1,2-a]pyrazine]	0.429 µM	57.5 nM
Cc1cc(Oc2nccc3occc23)ccc1-c1c(C)cnc2nccn12 [Example 110, 5-[4-(furo[3,2-c]pyridin-4-yloxy)-2-methylphenyl]-6-methylimidazo[1,2-a]pyrimidine]	0.0338 µM	2.89 nM
Cc1cc(Oc2nccc3occc23)ccc1-c1nc2nccn2cc1C [Example 111, 7-[4-(furo[3,2-c]pyridin-4-yloxy)-2-methylphenyl]-6-methylimidazo[1,2-a]pyrimidine]	0.335 µM	41.2 nM
Cc1cc(Oc2nccc3occc23)ccc1-c1c(C)nc(N)c2nccn12 [Example 112, 5-[4-(furo[3,2-c]pyridin-4-yloxy)-2-methylphenyl]-6-methylimidazo[1,2-a]pyrazin-8-amine]	0.156 µM	13.8 nM
COc1cc(Oc2nccc3occc23)ccc1-c1cc(N)cnc1C [Example 113, 5-[4-(furo[3,2-c]pyridin-4-yloxy)-2-methoxyphenyl]-6-methylpyridin-3-amine]	1.02 µM	133 nM
Cc1ncnc(C)c1-c1c(F)cc(Oc2nccc3occc23)cc1F [Example 114, 4-[4-(4,6-dimethylpyrimidin-5-yl)-3,5-difluorophenoxy]furo[3,2-c]pyridine]	0.103 µM	21.2 nM
Cc1cc(Oc2nccc3occc23)ccc1-c1c(C)cnn2c(=O)[nH]nc12 [Example 115, 8-[4-(furo[3,2-c]pyridin-4-yloxy)-2-methylphenyl]-7-methyl[1,2,4]triazolo[4,3-b]pyridazin-3(2H)-one]	0.777 µM	194 nM
Cc1ncnc(C)c1-c1ccc(Oc2nccc3occc23)c2ccncc12 [Example 116, 8-(4,6-dimethylpyrimidin-5-yl)-5-(furo[3,2-c]pyridin-4-yloxy)isoquinoline]	3.44 µM	481 nM
Cc1cc(Oc2nccc3occc23)ccc1-c1c(C)nc(C)c(=O)n1C [Example 117, 6-[4-(furo[3,2-c]pyridin-4-yloxy)-2-methylphenyl]-1,3,5-trimethylpyrazin-2(1H)-one]	0.452 µM	23.1 nM
Cc1cc(Oc2nccc3occc23)ccc1-c1c(C)ncnc1C(=O)O [Example 118, 5-[4-(furo[3,2-c]pyridin-4-yloxy)-2-methylphenyl]-6-methylpyrimidine-4-carboxylic acid]	> 30 µM	> 986 nM
c1cc2occc2c(Oc2ccc(-c3nccc4occc34)cc2)n1 [Example 119, 4-[4-(furo[3,2-c]pyridin-4-yloxy)phenyl]furo[3,2-c]pyridine]	> 11.2 µM	2240 nM
Cc1ncncc1-c1ccc(Oc2nccc3occc23)cc1C(C)(C)C#N [Example 122, 2-[5-(furo[3,2-c]pyridin-4-yloxy)-2-(4-methylpyrimidin-5-yl)phenyl]-2-methylpropanenitrile]	4.59 µM	211 nM
Cc1cc(Oc2nccc3occc23)ccc1-c1c(C)cnc(=O)n1C [Example 124, 6-[4-(furo[3,2-c]pyridin-4-yloxy)-2-methylphenyl]-1,5-dimethylpyrimidin-2(1H)-one]	0.188 µM	29.4 nM
Cc1cc(Oc2nccc3occc23)ccc1-c1cn[nH]c(=O)c1C [Example 125, 5-[4-(furo[3,2-c]pyridin-4-yloxy)-2-methylphenyl]-4-methylpyridazin-3(2H)-one]	0.0917 µM	23 nM
Cc1cc(Oc2nccc3occc23)ccc1-c1cccc(=O)n1C [Example 126, 6-[4-(furo[3,2-c]pyridin-4-yloxy)-2-methylphenyl]-1-methylpyridin-2(1H)-one]	0.546 µM	39.9 nM
Cc1ncnc(C)c1-c1ccc(Oc2nccc3occc23)cc1Cl [Example 127, 4-[3-chloro-4-(4,6-dimethylpyrimidin-5-yl)phenoxy]furo[3,2-c]pyridine]	0.127 µM	14 nM
Cc1ncnc(C)c1-c1cc(F)c(Oc2nccc3occc23)c(F)c1 [Example 128, 4-[4-(4,6-dimethylpyrimidin-5-yl)-2,6-difluorophenoxy]furo[3,2-c]pyridine]	5.48 µM	379 nM
Cc1cc(Oc2nccc3occc23)c(F)cc1-c1c(C)ncnc1C [Example 129, 4-[4-(4,6-dimethylpyrimidin-5-yl)-2-fluoro-5-methylphenoxy]furo[3,2-c]pyridine]	0.268 µM	32.3 nM
